What all share (assay type): in vivo
In assay [1] the test system is adult engorged female ticks (Rhipicephalus microplus). The assay is described as follows: Rhipicephalus (Boophilus) microplus injection test. Particulars: 168 h, egg deposition after 7 days, read-out: activity (efficacy: infertile eggs); for pest or weed control at 0.02 mg: application rate 20 μg/animal. The method, boiled down:
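Abdominal injection, 1 μL compound/DMSO, n=5 engorged adult females; climate-chamber incubation. Readout d7: fertile egg laying; doubtful eggs held to hatch (~42 d). % efficacy = infertile eggs (100% all infertile).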

The subject of assay [2] is adult unfed cat fleas (Ctenocephalides felis). As to the kind of experiment: Ctenocephalides felis oral test. Particulars: 48 h, read-out: activity (mortality). The method in brief: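 About 20 adult unfed fleas fed through parafilm on cattle blood containing compound (DMSO stock diluted in blood), blood held at 37 °C and fleas at room temperature. Mortality (%) scored after 2 days.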

Assay [3] concerns adult cat fleas (Ctenocephalides felis). As to the kind of experiment: Ctenocephalides felis in-vitro contact test, adult cat flea. Particulars: application rate 5 μg/cm^2 (=500 g/ha), after 48 hours, read-out: activity (efficacy: fleas dead or moribund). The method, boiled down: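 Efficacy, as % of fleas dead or moribund, was read 48 h after 5-10 adult cat fleas were confined in glass tubes whose walls carried dried compound film (900 ppm, […]). Fleas failing to escape upward from a 45-50° C plate within 5 min counted as dead or moribund.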

The test system of assay [4] is brown planthopper (Nilaparvata lugens). The assay is described as follows: Nilaparvata lugens spray test. Particulars: 96 h, after 4 days; for mortality at 500 g/ha: application rate 500 g/ha; for mortality at 100 g/ha: application rate 100 g/ha. As for the experimental part: Nilaparvata lugens—Spray Test
Solvent: 78.0 parts by weight of acetone • • 1.5 parts by weight of dimethylformamide
Emulsifier: alkylarylpolyglycol ether
To produce a suitable preparation of active compound, 1 part by weight of active compound is mixed with the stated amount of solvents and is diluted with water, containing an emulsifier concentration of 1000 ppm, to the desired concentration. Further test concentrations are prepared by dilution with emulsifier containing water.
Rice plants (Oryza sativa) are sprayed with a preparation of the active ingredient of the desired concentration and the plants are infested with the brown planthopper (Nilaparvata lugens).
After 4 days mortality in % is determined. 100% means all planthoppers have been killed and 0% means none of the planthoppers have been killed.

Assay [5] has as its system larvae of the banded cucumber beetle (Diabrotica balteata). The assay is described as follows: Diabrotica balteata spray test. Particulars: 168 h, after 7 days, read-out: activity (efficacy: seedlings grown); for pest or weed control at 500 g/ha: application rate 500 g/ha (=160 pg/well); for pest or weed control at 100 g/ha: application rate 100 g/ha (=32 pg/well). The method in brief: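 Read-out is % efficacy at day 7, 0% meaning no seedling growth and 100% growth equal to uninfested untreated controls. Test solutions (acetone/DMF concentrate diluted with water carrying 1000 ppm emulsifier) were sprayed onto 1-day-germinated wheat seeds, 5 per well, before infestation with 10-20 larvae.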

In assay [6] the test system is green peach aphid (Myzus persicae). As to the kind of experiment: Myzus persicae spray test. Particulars: 120 h, after 5 days; for mortality at 100 g/ha: application rate 100 g/ha; for mortality at 500 g/ha: application rate 500 g/ha. The method in brief:
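Chinese cabbage leaf disks carrying all instars of M. persicae sprayed with compound in acetone/DMF, diluted in water with 1000 ppm alkylarylpolyglycol ether emulsifier. Percent mortality scored after 5 days (100% = all aphids killed).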

The subject of assay [7] is Aedes aegypti strain MONHEIM. The assay is described as follows: Aedes aegypti test (AEDSAE surface treatment & contact assay). Particulars: 24 hours after contact, read-out: efficacy (mortality); for mortality at 20 mg/m2: surface concentration 20 mg/m^2, exposure 30 minutes. The method in brief: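 Percent mortality was read 24 h after adult MONHEIM mosquitoes were held for 30 min on a tile treated with compound. Compound applied from acetone solution (2 mg/ml) containing 2000 ppm rapeseed oil methyl ester, after evaporation.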

In assay [8] the test system is green peach aphid (Myzus persicae). The assay is described as follows: Myzus persicae oral test. Particulars: 120 h, application rate 4 ppm, after 5 days. The method, boiled down:
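Readout: % mortality at day 5, where 100% = all aphids dead and 0% = none dead. Feeding via parafilm membrane over compound in IPL41 medium (33%+15% sugar); mixed-age population. Stock in acetone (1:100 w/w), water-diluted.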

In assay [9] the test system is larvae of the southern green stink bug (Nezara viridula). The assay is described as follows: Nezara viridula spray test. Particulars: 96 h, after 4 days; for mortality at 500 g/ha: application rate 500 g/ha; for mortality at 100 g/ha: application rate 100 g/ha. The method, boiled down:
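Larva-infested barley (Hordeum vulgare) plants received a spray of test solution prepared from an acetone/DMF concentrate diluted in emulsifier-containing water (1000 ppm). Percent kill read 4 days later; 0% means no stink bugs dead.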

Assay [10] has as its system Rhipicephalus microplus larvae (strain Parkhurst, resistant against synthetic pyrethroids). The assay is described as follows: Rhipicephalus (Boophilus) microplus in-vitro contact test, larval cattle tick. Particulars: after 48 hours, read-out: activity (efficacy: larvae dead or moribund); for pest or weed control at 100 g/ha: application rate 1 pg/cm^2 (=100 g/ha); for pest or weed control at 500 g/ha: application rate 5 pg/cm^2 (=500 g/ha). The method in brief: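 Larvae (20-50 per tube) exposed to dry compound film on glass tube walls, 5 μg/cm^2 at 900 ppm, applied from acetone. After 48 h at 27° C./85% RH, tubes tapped and negative geotaxis scored; efficacy as percent dead or moribund larvae.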

Assay [11] deals with fall armyworm larvae (Spodoptera frugiperda). The assay is described as follows: Spodoptera frugiperda spray test. Particulars: 168 h, read-out: activity (mortality). The method in brief:
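Larvae of fall armyworm placed on dried maize leaf sections previously sprayed with emulsified compound (acetone/DMF solvent, water with 1000 ppm emulsifier). Percent of caterpillars killed recorded on day 7, 0–100% scale.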

For assay [12], the system named is Musca domestica strain WHO-N. The assay is described as follows: Musca domestica test (MUSCDO surface treatment & contact assay). Particulars: 24 hours after contact, read-out: efficacy (mortality); for mortality at 4 mg/m2: surface concentration 4 mg/m^2, exposure 30 minutes; for mortality at 20 mg/m2: surface concentration 20 mg/m^2, exposure 30 minutes. The method, then: Musca domestica Test (MUSCDO Surface Treatment & Contact Assay)
Solvent: Aceton+2000 ppm rapeseed oil methyl ester (RME)
In order to produce a sufficient, active ingredient containing solution it is necessary to solve the test compound in the solvent-mix (acetone at 2 mg/ml/RME 2000 ppm). This solution is pipetted onto a glazed tile and after evaporation of the acetone, adult flies of the species Musca domestica strain WHO—N are placed onto the dried surface. The exposure time is 30 minutes. Mortality in percent (%) is determined 24 hours after contact of the insects to the treated surface. 100% mortality means that all tested insects are dead, whereas 0% means that no insect died.

As to `CCc1nc([C@H](C)NC(=O)c2cc(Cl)cc(S(C)(=O)=O)c2)n(-c2ccc(C#N)cn2)n1` [I-3], in assay [1], the pest or weed control at 0.02 mg was found to be 100%. The mortality at 100 ppm in [2] worked out at 100%. Besides, in assay [3], the pest or weed control at 5 µg/cm2 came out at 90%. The mortality at 500 g/ha in [4], in [6], in [9] and in assay [11] was 100% throughout. In addition, the pest or weed control at 500 g/ha in [5] and in assay [10] was 100% throughout. The mortality at 100 g/ha in [6] and in assay [11] was 100% each time. Further, in [7], the mortality at 20 mg/m2 fell in the range of 80 to 100%. In assay [8], this molecule returned a mortality at 4 ppm of 100%. Further, in assay [10], the pest or weed control at 100 g/ha is 100%.

In the case of `COc1nc([C@H](C)NC(=O)c2cc(Cl)cc(S(C)(=O)=O)c2)n(-c2ccc(C#N)cn2)n1` [I-7], the pest or weed control at 4 pg in assay [1] (application rate 4 pg/animal) stood at 100%. Besides, in assay [1], the pest or weed control at 0.02 mg was determined as 100%. Also, in [2], the mortality at 100 ppm is 100%. The pest or weed control at 5 µg/cm2 in assay [3] was determined as 100%. In addition, the mortality at 500 g/ha in assay [4] was 90%; in [6], 90%; in [9], 100%; in assay [11], 100%. Moreover, the pest or weed control at 100 g/ha in [5] and in assay [10] was 100% each time. In addition, the pest or weed control at 500 g/ha in [5] and in assay [10] was 100% in each case. Further, the mortality at 100 g/ha in assay [6], in assay [9] and in [11] was 100% each time. In addition, the mortality at 4 ppm in assay [8] was 100%.

With `CC(NC(=O)c1cc(C(F)(F)F)cc(S(C)(=O)=O)c1)c1nc(Br)nn1-c1ncccn1` (stereo not shown) [I-38], the mortality at 100 g/ha was 100% in [4], 90% in assay [6] and 100% in [9]. The pest or weed control at 100 g/ha in assay [5] worked out at 100%. This molecule also came in with a mortality at 4 ppm in assay [8] of 100%.

With `C[C@H](NC(=O)c1cc(C(F)(F)F)cc(S(C)(=O)=O)c1)c1nc(C2CC2)nn1-c1ccc(C#N)cn1` [I-64], the mortality at 100 g/ha in assay [4], in assay [6], in assay [9] and in assay [11] was 100% in each case. Also, the pest or weed control at 100 g/ha in [5] was 100%. Moreover, the mortality at 20 mg/m2 in assay [7] and in assay [12] was 80 to 100% each time. In addition, the mortality at 4 ppm in [8] is 100%. For the same molecule, the mortality at 4 mg/m2 in assay [12] was 80 to 100%.

As for `COc1nc([C@H](C)NC(=O)c2cc(OC(F)(F)F)cc(S(C)(=O)=O)c2)n(-c2ncc(Cl)cn2)n1` [I-77], the mortality at 500 g/ha in [4] and in [9] was 100% in each case. Also, in assay [5], the pest or weed control at 100 g/ha came to 100%. The mortality at 100 g/ha in assay [6] and in assay [11] was 100% throughout.

Consider `C[C@H](NC(=O)c1cc(OC(F)(F)F)cc(S(C)(=O)=O)c1)c1nc(C2CC2)nn1-c1ccc(C#N)cn1` [I-81], for which the mortality at 500 g/ha in [4] and in [9] was 100% in each case. The pest or weed control at 100 g/ha in assay [5] amounted to 100%. Also, the values for the mortality at 100 g/ha in assay [6], in assay [9] and in assay [11] were 90%, 100% and 100%, respectively. Also, the mortality at 4 mg/m2 in assay [7] (surface concentration 4 mg/m^2, exposure 30 minutes) was in the range of 80 to 100%; in assay [12], 80 to 100%. In assay [8], this molecule returned a mortality at 4 ppm of 100%. In addition, in assay [12], the mortality at 20 mg/m2 was 80 to 100%.

Regarding `C[C@H](NC(=O)c1cc(OC(F)(F)F)cc(S(C)(=O)=O)c1)c1nc(C2CC2)nn1-c1ncc(Cl)cn1` [I-82], the mortality at 500 g/ha was found to be 90% in assay [4] and 100% in assay [9]. Besides, the pest or weed control at 100 g/ha in assay [5] was found to be 100%. Also, the mortality at 100 g/ha in assay [6] was determined as 90%; in assay [9] it was 100%; in assay [11], 100%. For the same molecule, the mortality at 20 mg/m2 in assay [7] and in assay [12] was 80 to 100% in each case. In addition, the mortality at 4 ppm in assay [8] is 100%. Further, the mortality at 4 mg/m2 in assay [12] fell in the range of 80 to 100%.

On to `C[C@H](NC(=O)c1cc(OC(F)(F)F)cc(S(=O)(=O)C2CC2)c1)c1nc(C2CC2)nn1-c1ncc(Cl)cn1` [I-93], for which the mortality at 500 g/ha was found to be 90% in assay [4] and 100% in assay [9]. Moreover, the pest or weed control at 100 g/ha in assay [5] is 100%. In addition, the mortality at 100 g/ha in [6] and in [11] was 100% each time.

`C[C@H](NC(=O)c1cc(C(F)(F)F)cc(S(C)(=O)=O)c1)c1nc(Br)nn1-c1ncccn1` [I-95, N-[(1S)-1-(5-bromo-2-pyrimidin-2-yl-1,2,4-triazol-3-yl)ethyl]-3-methylsulfonyl-5-(trifluoromethyl)benzamide] came in with a mortality at 500 g/ha in assay [4] of 100%. In addition, the pest or weed control at 100 g/ha in assay [5] stood at 100%. Further, the mortality at 100 g/ha in assay [6] was determined as 90%; in [11], 100%.

For the molecule `C[C@H](NC(=O)c1cc(C(F)(F)F)cc(S(C)(=O)=O)c1)c1nc(Cl)nn1-c1ncccn1` [I-96, N-[(1S)-1-(5-chloro-2-pyrimidin-2-yl-1,2,4-triazol-3-yl)ethyl]-3-methylsulfonyl-5-(trifluoromethyl)benzamide], the mortality at 500 g/ha in assay [4] and in assay [9] was 100% throughout. Also, the pest or weed control at 100 g/ha in assay [5] turned out to be 100%. For the same molecule, the mortality at 100 g/ha in [11] amounted to 100%.

For orientation: mortality means the share of the test organisms that died.

For the origin of these results see patent US20260206761A1, “HETEROARYL-TRIAZOLE COMPOUNDS AS PESTICIDES” (Bayer Aktiengesellschaft, priority 2019, published 2026).
